Measurements taken from PubChem BioAssay (NCI).
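Growth conditions: 96-well plates. Treatment: test compound, 48 hours, 5 concentrations. Analysis: linear interpolation between bracketing concentrations; unreached endpoints set to highest concentration. TGI: total growth inhibition.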

What was measured:
Test in all cases: NCI tumour cell line growth inhibition, 48 h
[1] = test system: K-562 leukemia
[2] = test system: SF-268 CNS
[3] = test system: NCI-H23 lung
[4] = test system: CCRF-CEM leukemia
[5] = test system: NCI-H522 lung
[6] = test system: PC-3 prostate
[7] = test system: MDA-MB-231 breast
[8] = test system: HS 578T breast
[9] = test system: OVCAR-8 ovarian
[10] = test system: SN12C renal
[11] = test system: SK-MEL-28 melanoma
[12] = test system: T-47D breast
[13] = test system: HL-60(TB) leukemia
[14] = test system: ACHN renal
[15] = test system: M14 melanoma
[16] = test system: A549 NSCLC
[17] = test system: SK-OV-3 ovarian
[18] = test system: UO-31 renal
[19] = test system: HCT-116 colon
[20] = test system: NCI-H460 lung
[21] = test system: OVCAR-3 ovarian
[22] = test system: EKVX NSCLC
[23] = test system: NCI-H226 lung
[24] = test system: KM12 colon
[25] = test system: MCF7 breast
[26] = test system: TK-10 renal
[27] = test system: COLO 205 colon
[28] = test system: BT-549 breast
[29] = test system: MDA-N
[30] = test system: SF-539 CNS
[31] = test system: HCT-15 colon
[32] = test system: CAKI-1 renal
[33] = test system: HT29 colon
[34] = test system: MOLT-4 leukemia
[35] = test system: U251 CNS
[36] = test system: SF-295 CNS
[37] = test system: SNB-75 CNS
[38] = test system: HOP-92 NSCLC
[39] = test system: RXF 393 renal
[40] = test system: SK-MEL-5 melanoma
[41] = test system: LOX IMVI melanoma
[42] = test system: OVCAR-5 ovarian
[43] = test system: IGROV1 ovarian
[44] = test system: MALME-3M melanoma
[45] = test system: SW-620 colon
[46] = test system: DU-145 prostate
[47] = test system: MDA-MB-435
[48] = test system: HCC-2998 colon
[49] = test system: NCI/ADR-RES ovarian
[50] = test system: UACC-62 melanoma
[51] = test system: SK-MEL-2 melanoma
[52] = test system: SNB-19 CNS
[53] = test system: UACC-257 melanoma
[54] = test system: 786-0 renal
[55] = test system: OVCAR-4 ovarian
[56] = test system: A498 renal
[57] = test system: HOP-62 NSCLC

O=P(O)(O)CC1OC(CO)C(O)C1O (stereo unspecified) was tested, and the TGI [1] was > 100 µM, the TGI [2] was > 100 µM and the TGI [3] was > 100 µM. For the same molecule, the TGI [4] was > 100 µM, the TGI [5] was > 100 µM and the TGI [6] was > 100 µM. The TGI [7] was > 100 µM, the TGI [8] was > 100 µM and the TGI [9] was > 100 µM. For the same molecule, the TGI [10] was > 100 µM, the TGI [11] was > 100 µM and the TGI [12] was > 100 µM. The TGI [13] was > 100 µM, the TGI [14] was > 100 µM and the TGI [15] was > 100 µM. The TGI [16] was > 100 µM, the TGI [17] was > 100 µM and the TGI [18] was > 100 µM. For the same molecule, the TGI [19] was > 100 µM, the TGI [20] was > 100 µM and the TGI [21] was > 100 µM. The TGI [22] was > 100 µM, the TGI [23] was > 100 µM and the TGI [24] was > 100 µM. The TGI [25] was > 100 µM, the TGI [26] was > 100 µM and the TGI [27] was > 100 µM. For the same molecule, the TGI [28] was > 100 µM, the TGI [29] was > 100 µM and the TGI [30] was > 100 µM. The TGI [31] was > 100 µM, the TGI [32] was > 100 µM and the TGI [33] was > 100 µM. For the same molecule, the TGI [34] was > 100 µM, the TGI [35] was > 100 µM and the TGI [36] was > 100 µM. For the same molecule, the TGI [37] was > 100 µM, the TGI [38] was > 100 µM and the TGI [39] was > 100 µM. For the same molecule, the TGI [40] was > 100 µM, the TGI [41] was > 100 µM and the TGI [42] was > 100 µM. For the same molecule, the TGI [43] was > 100 µM, the TGI [44] was > 100 µM and the TGI [45] was > 100 µM. For the same molecule, the TGI [46] was > 100 µM, the TGI [47] was > 100 µM and the TGI [48] was > 100 µM. The TGI [49] was > 100 µM, the TGI [50] was > 100 µM and the TGI [51] was > 100 µM. For the same molecule, the TGI [52] was > 100 µM, the TGI [53] was > 100 µM and the TGI [54] was > 100 µM. For the same molecule, the TGI [55] was > 100 µM and the TGI [56] was > 100 µM.
COc1cc(C(=O)N(C(=S)OC23CC4CC(CC(C4)C2)C3)c2ccccc2)cc(OC)c1OC was tested, and the TGI [1] was > 100 µM, the TGI [2] was > 100 µM and the TGI [3] was > 100 µM. For the same molecule, the TGI [4] was 36 µM, the TGI [5] was 25.9 µM and the TGI [6] was > 100 µM. The TGI [7] was > 100 µM, the TGI [8] was > 100 µM and the TGI [9] was > 100 µM. The TGI [10] was > 100 µM, the TGI [11] was > 100 µM and the TGI [12] was > 100 µM. The TGI [13] was 45.8 µM, the TGI [14] was > 100 µM and the TGI [57] was > 100 µM. The TGI [15] was 39.7 µM, the TGI [16] was > 100 µM and the TGI [17] was > 100 µM. The TGI [18] was 79 µM, the TGI [19] was 46.4 µM and the TGI [20] was > 100 µM. For the same molecule, the TGI [21] was > 100 µM, the TGI [22] was 48.1 µM and the TGI [23] was > 100 µM. For the same molecule, the TGI [24] was > 100 µM, the TGI [25] was > 100 µM and the TGI [26] was > 100 µM. For the same molecule, the TGI [27] was 39 µM, the TGI [28] was > 100 µM and the TGI [29] was 85.8 µM. For the same molecule, the TGI [30] was > 100 µM, the TGI [31] was > 100 µM and the TGI [32] was > 100 µM. The TGI [33] was 41.8 µM, the TGI [34] was 21.8 µM and the TGI [35] was 53 µM. The TGI [36] was > 100 µM, the TGI [37] was > 100 µM and the TGI [38] was > 100 µM. For the same molecule, the TGI [39] was > 100 µM, the TGI [40] was 32.9 µM and the TGI [42] was > 100 µM. The TGI [44] was 82.1 µM, the TGI [45] was > 100 µM and the TGI [46] was > 100 µM. For the same molecule, the TGI [47] was > 100 µM, the TGI [48] was 61.4 µM and the TGI [49] was > 100 µM. The TGI [50] was > 100 µM, the TGI [51] was 32.1 µM and the TGI [52] was > 100 µM. The TGI [53] was > 100 µM, the TGI [54] was > 100 µM and the TGI [55] was > 100 µM. It also gave a TGI [56] of 92.5 µM.
